Test results: paper PMC4890880 (ACS infectious diseases, 2016)
Read-outs that look alike come from different tables or passages of the source.

Tests used:
[1] = tested on: HepG2-A16-CD81EGFP cells; experiment: cells; settings: Homo sapiens; for IC50: HepG2, read-out: Tox IC50; for inhibition at 50 µM: HepG2, read-out: Tox max inhibition (%) @ 50 uM
[2] = tested on: Plasmodium berghei (Pb-Luc) exoerythrocytic-stage parasites; experiment: microbe, parasite or virus in culture
[3] = HepG2, read-out: HepG2 Tox% @ 50 uM rep1
[4] = HepG2, read-out: HepG2 Tox% @ 50 uM rep2
[5] = read-out: Inhibition% @ 50 uM rep1
[6] = read-out: Inhibition% @ 50 uM rep2
[7] = read-out: PbLuc IC50, dose response, 1/3 dilutions, max conc. 10 or 50 uM, unit inferred
[8] = read-out: PbLuc max inhibition (%) @ 50 uM
[9] = read-out: PbLuc IC50, dose response, unit inferred

Structure (SMILES) | cytotoxicity at 50 µM [1, 3] [%] | cytotoxicity at 50 µM [1, 4] [%] | IC50 [1] [µM] | inhibition at 50 µM [1] [%] | inhibition at 50 µM [2, 5] [%] | inhibition at 50 µM [2, 6] [%] | IC50 [2, 7] [µM] | inhibition at 50 µM [2, 8] [%] | IC50 [2, 9] [µM]
CN1CCN(c2ccc(Nc3c4ccccc4nc4ccccc34)cc2)CC1 [MMV006172] | 97 | 99 | 5.18 | 94 | 104 | 106 | 3.44 | 99 | –
Cc1cc(NCCN2CCCCC2)c2ccc3ccccc3c2n1 [MMV006203] | 93 | 95 | – | – | 99 | 101 | – | – | –
CCN(CC)CCNc1ccnc2cc3ccccc3cc12 [MMV006303] | 99 | – | 42.6 | 92 | 102 | 103 | 20.8 | 98 | –
Cc1cc(Nc2cccc(F)c2)nc(NCc2ccccc2)n1 [MMV006319] | 99 | 102 | – | – | 104 | 106 | – | – | –
COc1cc(OC)c(N(C)C(=O)c2cc3c(s2)-c2ccccc2S(=O)(=O)C3)cc1Cl [MMV006427] | 53 | 52 | > 50 | 39 | 99 | 102 | 11 | 97 | –
Cc1cc(NC(=O)C2c3ccccc3C(=O)N(CC(C)C)C2c2cccs2)no1 (stereo not drawn) [MMV006429] | 15 | 18 | > 50 | 18 | 103 | 104 | – | 96 | 21.4
c1ccc2c(NCCc3c[nH]c4ccccc34)c3ccccc3nc2c1 [MMV006513] | 97 | – | – | – | 98 | 101 | – | – | –
CCN(CC)CCNc1ncnc2c1[nH]c1ccc(Br)cc12 [MMV006545] | 99 | 101 | – | – | 104 | 106 | – | – | –
Cc1cc(C)c2c(c1)OCN(Cc1ccccc1Cl)C2 [MMV006558] | 100 | 100 | – | – | 104 | 105 | – | – | –
Clc1ccc2[nH]c3c(NCCCN4CCOCC4)ncnc3c2c1 [MMV006587] | 95 | 98 | – | – | 101 | 100 | – | – | –
CCOC(=O)C1=CN(C)C=C(C(=O)OCC)C1c1cc(Br)c(OCC)c(OC)c1 [MMV006656] | 50 | – | > 50 | 31 | 103 | 103 | 8.23 | 99 | –
Cc1cc(=O)oc2c1ccc1oc(C(=O)c3ccccc3)c(C)c12 [MMV006753] | 37 | – | – | – | 102 | 103 | – | – | –
CC(C)CCNCC(O)Cn1c2ccccc2c2ccccc21 (stereo not drawn) [MMV006787] | 98 | – | 30.3 | 97 | 103 | 103 | 9.6 | 99 | –
c1ccc2cc3c(Nc4ccc(N5CCOCC5)cc4)ccnc3cc2c1 [MMV006861] | 78 | 99 | – | – | 103 | 105 | – | – | –
Cc1ccc2c(C)nc(Nc3nc(C)cc(-c4ccccc4)n3)nc2c1 [MMV007041] | 37 | – | – | – | 103 | 103 | – | – | –
CCOc1ccc(CN2CCN(CC(O)COc3ccc(OCC(O)CN4CCN(Cc5ccc(OCC)cc5)CC4)cc3)CC2)cc1 (stereo not drawn) [MMV007092] | 98 | – | 41.6 | 65 | 103 | 104 | 12.4 | 99 | –
c1ccc(C2=Nc3ccccc3N=C(c3ccccc3)c3ccccc32)cc1 [MMV007113] | 22 | – | > 50 | 15 | 94 | 95 | – | 40 | > 50
Cc1cc(Nc2ccc(OCc3ccccc3)cc2)nc2cc(O)ccc12 [MMV007181] | 98 | – | – | – | 103 | 103 | – | – | –
COc1cc(-c2nc(-c3ccc(Sc4ccccc4)cc3)c(-c3ccccc3)[nH]2)cc(OC)c1O [MMV007273] | 89 | – | 34.1 | 82 | 101 | 102 | 7.67 | 100 | –
Cc1ccc(F)cc1NC(=O)c1cc(Cl)ccc1Nc1ccccc1 [MMV007275] | -8 | – | – | – | 75 | 69 | – | – | –
